From ChEMBL document CHEMBL1201862, “PubChem BioAssay data set” (2004)
Where “and” joins values, the source holds several entries; their conditions need not be identical. Equal values may be shown once.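 Each compound was tested at five concentrations against cells in 96-well plates for 48 hours. Here, GI50 denotes the concentration required for 50% inhibition of growth.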 Calls of active or inactive are those of the source. No stated cut-off is given here; in the data, active = GI50 up to about 1.1 µM and inactive = higher.

What was measured:
Experiment in all cases: NCI anticancer screen, dose series, 48 h
ACHN = tested on: ACHN
CCRF-CEM = tested on: CCRF-CEM
DU-145 = tested on: DU-145
Hs-578T = tested on: Hs-578T
M14 = tested on: M14
MDA-MB-231 = tested on: MDA-MB-231
Malme-3M = tested on: Malme-3M
NCI-H23 = tested on: NCI-H23
NCI/ADR-RES = tested on: NCI/ADR-RES
OVCAR-4 = tested on: OVCAR-4
OVCAR-5 = tested on: OVCAR-5
PC-3 = tested on: PC-3
SK-MEL-5 = tested on: SK-MEL-5
SK-OV-3 = tested on: SK-OV-3
SNB-75 = tested on: SNB-75
TK-10 = tested on: TK-10
U-251 = tested on: U-251
UO-31 = tested on: UO-31
HL-60 = tested on: HL-60
HOP-92 = tested on: HOP-92

SMILES	GI50 (ACHN)	GI50 (CCRF-CEM)	GI50 (DU-145)	GI50 (Hs-578T)	GI50 (M14)	GI50 (MDA-MB-231)	GI50 (Malme-3M)	GI50 (NCI-H23)	GI50 (NCI/ADR-RES)	GI50 (OVCAR-4)	GI50 (OVCAR-5)	GI50 (PC-3)	GI50 (SK-MEL-5)	GI50 (SK-OV-3)	GI50 (SNB-75)	GI50 (TK-10)	GI50 (U-251)	GI50 (UO-31)	GI50 (HL-60)	GI50 (HOP-92)
COC(=O)C1=CSC2(S1)C(C(=O)OC)=CSc1c2ss/c1=N\c1ccccc1 (stereo unspecified)	2.56 µM (inactive)	1.6 µM (inactive)	2.96 µM (inactive)	2.55 µM (inactive)	2.02 µM (inactive)	2.07 µM (inactive)	0.813 µM (active)	2.47 µM (inactive)	1.69 µM (inactive)	1.87 µM (inactive)	3.66 µM (inactive)	5.08 µM (inactive)	2.53 µM (inactive)	2.72 µM (inactive)	2.22 µM (inactive)	2.7 µM (inactive)	2.4 µM (inactive)	2.52 µM (inactive)		
C#CCOCC12C=CC(O1)C1C(=O)OCC12 (stereo unspecified)	> 100 µM (inactive)	> 100 µM (inactive)	> 100 µM (inactive)	> 100 µM (inactive)	> 100 µM (inactive)	> 100 µM (inactive)	> 100 µM (inactive)	> 100 µM (inactive)	> 100 µM (inactive)	> 100 µM (inactive)	> 100 µM (inactive)	> 100 µM (inactive)	> 100 µM (inactive)	> 100 µM (inactive)	> 100 µM (inactive)	> 100 µM (inactive)	> 100 µM (inactive)	> 100 µM (inactive)	> 100 µM (inactive)	
CC1OC(OC2C(O)COC(OC3C(C)OC(OC4C(OC(=O)[C@]56CCC(C)(C)C[C@@H]5C5=CCC7[C@@]8(C)C[C@H](O)[C@H](OC9OC(CO)C(O)C(OC%10OC(CO)C(O)C(O)C%10O)C9O)[C@@](C)(CO)[C@@H]8CC[C@@]7(C)[C@]5(C)CC6)OCC(O)C4O)C(O)C3O)C2O)C(O)C(O)C1O (stereo partly specified)	17.7 µM (inactive)	14.7 µM (inactive)	14.6 µM (inactive)	19.5 µM (inactive)	13 µM (inactive)	16.3 µM (inactive)	13.8 µM (inactive)	14.9 µM (inactive)	14.5 µM (inactive)	14.9 µM (inactive)	12.2 µM (inactive)	11 µM (inactive)	16 µM (inactive)	15.7 µM (inactive)	18.9 µM (inactive)	18.8 µM (inactive)	17.5 µM (inactive)	4.17 µM (inactive)		20.6 µM (inactive)
O=C(CC(C(=O)c1cccs1)c1ccsc1)c1ccc(Cl)cc1 (stereo unspecified)	> 100 µM (inactive)	> 100 µM (inactive)	> 100 µM (inactive)	> 100 µM (inactive)	> 100 µM (inactive)	> 100 µM (inactive)	> 100 µM (inactive)	> 100 µM (inactive)	83.8 µM (inactive)	> 100 µM (inactive)	> 100 µM (inactive)	> 100 µM (inactive)	> 100 µM (inactive)	> 100 µM (inactive)	> 100 µM (inactive)	> 100 µM (inactive)	> 100 µM (inactive)	> 100 µM (inactive)	> 100 µM (inactive)	
Clc1ccc(CNc2nc(Cl)c3nc[nH]c3n2)cc1Cl	31.2 µM (inactive)	35.5 µM (inactive)	19 µM (inactive)	21 µM (inactive)	20.8 µM (inactive)	30.8 µM (inactive)	26.4 µM (inactive)	22.4 µM (inactive)	15.8 µM (inactive)	35.4 µM (inactive)	> 100 µM (inactive)	21.6 µM (inactive)	16.7 µM (inactive)	20.6 µM (inactive)	32.1 µM (inactive)	12.2 µM (inactive)	36.2 µM (inactive)	11.4 µM (inactive)		
CC(C)CCNC(=O)c1ccc(CNC(=O)/C=C/c2cccc(Oc3ccccc3)c2)cc1	48.4 µM (inactive)		70.3 µM (inactive)	> 100 µM (inactive)	31 µM (inactive)	24.1 µM (inactive)	> 100 µM (inactive)	34.3 µM (inactive)	37.2 µM (inactive)	27.7 µM (inactive)	> 100 µM (inactive)	46.2 µM (inactive)	51.2 µM (inactive)	33.1 µM (inactive)	34.9 µM (inactive)	22.6 µM (inactive)	28.8 µM (inactive)	45 µM (inactive)		53.2 µM (inactive)
N#Cc1c(-c2ccccc2)[nH]c(=O)n(C2OC(CO)C(O)C(O)C2O)c1=O (stereo unspecified)	> 100 µM (inactive)	> 100 µM (inactive)	> 100 µM (inactive)	> 100 µM (inactive)	> 100 µM (inactive)	> 100 µM (inactive)		> 100 µM (inactive)	> 100 µM (inactive)	> 100 µM (inactive)	> 100 µM (inactive)	> 100 µM (inactive)	> 100 µM (inactive)	> 100 µM (inactive)	> 100 µM (inactive) and 75.7 µM (inactive)	> 100 µM (inactive)	> 100 µM (inactive)	> 100 µM (inactive)		> 100 µM (inactive)
CC(=O)N1C(c2[nH]c3ccccc3c2-c2ccccc2)CCN1c1ccccc1 (stereo unspecified)	> 10 µM (inactive)	7.8 µM (inactive)	> 10 µM (inactive)	> 10 µM (inactive)	> 10 µM (inactive)	> 10 µM (inactive)	> 10 µM (inactive)	> 10 µM (inactive)	> 10 µM (inactive)	> 10 µM (inactive)	> 10 µM (inactive)	8.97 µM (inactive)	> 10 µM (inactive)	> 10 µM (inactive)	> 10 µM (inactive)	> 10 µM (inactive)		> 10 µM (inactive)	> 10 µM (inactive)	
CC/C=N\N1C(N)=C(C#N)C(C#N)(C#N)C1CC (stereo unspecified)	> 100 µM (inactive)	36.1 µM (inactive)	> 100 µM (inactive)	> 100 µM (inactive)	> 100 µM (inactive)	> 100 µM (inactive)	> 100 µM (inactive)	> 100 µM (inactive)	92 µM (inactive)	91.2 µM (inactive)	> 100 µM (inactive)	> 100 µM (inactive)	53.1 µM (inactive)	> 100 µM (inactive)	81.8 µM (inactive)	> 100 µM (inactive)	58.6 µM (inactive)	> 100 µM (inactive)	35.8 µM (inactive)	
NC(=O)c1nnc2c(F)cccc2c1N	> 100 µM (inactive)	28.7 µM (inactive)	> 100 µM (inactive)	> 100 µM (inactive)	> 100 µM (inactive)	> 100 µM (inactive)	> 100 µM (inactive)	> 100 µM (inactive)	> 100 µM (inactive)	> 100 µM (inactive)	> 100 µM (inactive)	> 100 µM (inactive)	> 100 µM (inactive)	45.2 µM (inactive)	> 100 µM (inactive)	> 100 µM (inactive)	> 100 µM (inactive)	56 µM (inactive)	> 100 µM (inactive)	
CCCCCCCCC/C=C1/CC(CO)(COC(=O)C2CCCCC2)OC1=O (stereo unspecified)	> 100 µM (inactive)	> 100 µM (inactive)	> 100 µM (inactive)	62.8 µM (inactive)	> 100 µM (inactive)	> 100 µM (inactive)	43.3 µM (inactive)	> 100 µM (inactive)	> 100 µM (inactive)	> 100 µM (inactive)	> 100 µM (inactive)	> 100 µM (inactive)	43.2 µM (inactive)	> 100 µM (inactive)	> 100 µM (inactive)	> 100 µM (inactive)	> 100 µM (inactive)	> 100 µM (inactive)		> 100 µM (inactive)
O=C(O)Cc1cc(O)c(CC(=O)O)cc1O	> 100 µM (inactive)		> 100 µM (inactive)	> 100 µM (inactive)	> 100 µM (inactive)	> 100 µM (inactive)	> 100 µM (inactive)	> 100 µM (inactive)	> 100 µM (inactive)	> 100 µM (inactive)	> 100 µM (inactive)	> 100 µM (inactive)	> 100 µM (inactive)			> 100 µM (inactive)	> 100 µM (inactive)	> 100 µM (inactive)	> 100 µM (inactive)	> 100 µM (inactive)
CC(=O)C12C[C@](C#N)(N3CCCCCC3)C1C=Cc1ccccc12 (stereo partly specified)	> 100 µM (inactive)	> 100 µM (inactive)	> 100 µM (inactive)	> 100 µM (inactive)	> 100 µM (inactive)	> 100 µM (inactive)		> 100 µM (inactive)	> 100 µM (inactive)	> 100 µM (inactive)		> 100 µM (inactive)	> 100 µM (inactive)	> 100 µM (inactive)	> 100 µM (inactive)	> 100 µM (inactive)	> 100 µM (inactive)	> 100 µM (inactive)	> 100 µM (inactive)	
CC1(C)CC(O)C(C)(C)[C@@H](O)C1 (stereo partly specified)	> 100 µM (inactive)	> 100 µM (inactive)	> 100 µM (inactive)	> 100 µM (inactive)	> 100 µM (inactive)	> 100 µM (inactive)	> 100 µM (inactive)	> 100 µM (inactive)	> 100 µM (inactive)	> 100 µM (inactive)	> 100 µM (inactive)	> 100 µM (inactive)	> 100 µM (inactive)	> 100 µM (inactive)	> 100 µM (inactive)	> 100 µM (inactive)	> 100 µM (inactive)	> 100 µM (inactive)	> 100 µM (inactive)	
O=C1NCN(c2ccccc2)C12CCN(CC1COc3ccccc3O1)CC2 (stereo unspecified) [SPIROXATRINE]	84.1 µM (inactive)	> 100 µM (inactive)	77.4 µM (inactive)	23.5 µM (inactive)	> 100 µM (inactive)	59.7 µM (inactive)	40.6 µM (inactive)	44.3 µM (inactive)	47.5 µM (inactive)	33.4 µM (inactive)	> 100 µM (inactive)	51.9 µM (inactive)	> 100 µM (inactive)	51.3 µM (inactive)	36.4 µM (inactive)	46.9 µM (inactive)	31.3 µM (inactive)	50.7 µM (inactive)	> 100 µM (inactive)	
